In patent EP4389210A1, “HETEROARYL COMPOUNDS FOR THE CONTROL OF INVERTEBRATE PESTS” (BASF SE, priority 2022, dated 2024):

Legend:
Type in all cases: in vivo
Heliothis virescens = assay: Tobacco budworm (Heliothis virescens) control, 96-well microtiter plate insect diet test with eggs; details: 120 h, egg and larval mortality visually assessed after 5 days at about 28 ± 1°C, read-out: mortality in comparison with untreated controls
Experimental: For evaluating control of tobacco budworm (Heliothis virescens) the test unit consisted of 96-well-microtiter plates containing an insect diet and 15-25 H. virescens eggs.
The compounds were formulated using a solution containing 75% v/v water and 25% v/v DMSO. Different concentrations of formulated compounds were sprayed onto the insect diet at 10 µl, using a custom-built micro atomizer, at two replications.
After application, microtiter plates were incubated at about 28 ± 1°C and about 80 ± 5 % relative humidity for 5 days. Egg and larval mortality was then visually assessed.

Dichromothrips corbetti = assay: Orchid thrips (Dichromothrips corbetti) floral-immersion test; details: adult thrips on dipped orchid petals, recorded 72 hours after treatment, read-out: mortality in comparison with untreated controls
Experimental: Dichromothrips corbetti adults used for bioassay were obtained from a colony maintained continuously under laboratory conditions. For testing purposes, the test compound is diluted in a 1:1 mixture of acetone:water (vol:vol), plus Kinetic HV at a rate of 0.01% v/v.
Thrips potency of each compound was evaluated by using a floral-immersion technique. All petals of individual, intact orchid flowers were dipped into treatment solution and allowed to dry in Petri dishes. Treated petals were placed into individual re-sealable plastic along with about 20 adult thrips. All test arenas were held under continuous light and a temperature of about 28°C for duration of the assay. After 3 days, the numbers of live thrips were counted on each petal. The percent mortality was recorded 72 hours after treatment.

Spodoptera eridania = assay: Southern armyworm (Spodoptera eridania), 2nd instar larvae, foliar spray on lima bean plants; details: 96 h, 2nd instar larvae on sprayed lima bean plants, assessed 4 days after treatment, read-out: mortality in comparison with untreated controls
Experimental: The active compounds were formulated by a Tecan liquid handler in 100% cyclohexanone as a 10,000 ppm solution supplied in tubes. The 10,000 ppm solution was serially diluted in 100% cyclohexanone to make interim solutions. These served as stock solutions for which final dilutions were made by the Tecan in 50% acetone:50% water (v/v) into 10 or 20ml glass vials. A nonionic surfactant (Kinetic®) was included in the solution at a volume of 0.01% (v/v). The vials were then inserted into an automated electrostatic sprayer equipped with an atomizing nozzle for application to plants/insects. Lima bean plants (variety Sieva) were grown 2 plants to a pot and selected for treatment at the 1st true leaf stage. Test solutions were sprayed onto the foliage by an auto-mated electrostatic plant sprayer equipped with an atomizing spray nozzle. The plants were dried in the sprayer fume hood and then removed from the sprayer. Each pot was placed into perforated plastic bags with a zip closure. Ten to 11 armyworm larvae were placed into the bag and the bags zipped closed. Test plants were maintained in a growth room at about 25°C and about 20-40% relative humidity for 4 days, avoiding direct exposure to fluorescent light (14:10 light:dark photoperiod) to prevent trapping of heat inside the bags. Mortality and reduced feeding were assessed 4 days after treatment, compared to untreated control plants.

Anthonomus grandis = assay: Boll weevil (Anthonomus grandis) control, 96-well microtiter plate insect diet test with eggs; details: 120 h, egg and larval mortality visually assessed after 5 days at about 25 ± 1°C, read-out: mortality in comparison with untreated controls
Experimental: For evaluating control of boll weevil (Anthonomus grandis) the test unit consisted of 96-well-microtiter plates containing an insect diet and 5-10 A. grandis eggs.
The compounds were formulated using a solution containing 75% v/v water and 25% v/v DMSO. Different concentrations of formulated compounds were sprayed onto the insect diet at 5µl, using a custom-built micro atomizer, at two replications.
After application, microtiter plates were incubated at about 25 ± 1°C and about 75 ± 5 % relative humidity for 5 days. Egg and larval mortality was then visually assessed.

Aedes aegypti = assay: whole plant or invertebrate; details: 48 h, larval mortality visually assessed after 2 days at 28±1°C, read-out: mortality in comparison with untreated controls
Experimental: For evaluating control of yellow fever mosquito (Aedes aegypti) the test unit consisted of 96-well-microtiter plates containing 200µl of tap water per well and 5-15 freshly hatched A. aegypti larvae.
The active compounds were formulated using a solution containing 75% (v/v) water and 25% (v/v) DMSO. Different concentrations of formulated compounds or mixtures were sprayed onto the insect diet at 2.5µl, using a custom-built micro atomizer, at two replications.
After application, microtiter plates were incubated at 28±1°C, 80±5 % RH for 2 days. Larval mortality was then visually assessed.

CC(NC(=O)c1cc(Cl)cc(C(F)(F)F)c1)c1ncccc1-n1nccn1 (stereo not drawn) [Compound I-1]
≥ 75%: mortality at 2500 ppm (Heliothis virescens) | mortality at 300 ppm (Dichromothrips corbetti) | mortality at 300 ppm (Spodoptera eridania) | mortality at 2500 ppm (Anthonomus grandis) | mortality at 2500 ppm (Aedes aegypti)

CC(NC(=O)c1cc(Cl)cc(C(F)(F)F)c1)c1ncccc1-n1cc(C#N)cn1 (stereo not drawn) [Compound I-2]
≥ 75%: mortality at 300 ppm (Spodoptera eridania) | mortality at 2500 ppm (Anthonomus grandis) | mortality at 2500 ppm (Aedes aegypti)

CC(NC(=O)c1cc(Cl)cc(C(F)(F)F)c1)c1nc(Cl)ccc1-n1nccn1 (stereo not drawn) [Compound I-3, 3-chloro-N-[1-[6-chloro-3-(triazol-2-yl)-2-pyridyl]ethyl]-5-(trifluoromethyl)benzamide]
≥ 75%: mortality at 2500 ppm (Heliothis virescens) | mortality at 300 ppm (Spodoptera eridania) | mortality at 2500 ppm (Anthonomus grandis) | mortality at 2500 ppm (Aedes aegypti)
